Activity calls are given as the source filed them. The calls are words filed in the database; no cut-off is given here.
Legend:
[1] = molecular target: NACHT, LRR and PYD domains-containing protein 3 (Mus musculus) (UniProt Q8R4B8); assay: In vivo inhibition of NLRP3 in LPS/ATP-induced C57BL/6JRi mouse peritonitis model assessed as reduction in IL-1beta level at 3 mg/kg, po preadministered with compound for 3 hrs followed by LPS stimulation for 2 hrs and measured 15 mins after ATP addition; assay type: functional, organism-based; settings: time 315.0 min
NACHT, LRR and PYD domains-containing protein 3 (Mus musculus), sequence (Q8R4B8 whole entry, the tested form may be a part): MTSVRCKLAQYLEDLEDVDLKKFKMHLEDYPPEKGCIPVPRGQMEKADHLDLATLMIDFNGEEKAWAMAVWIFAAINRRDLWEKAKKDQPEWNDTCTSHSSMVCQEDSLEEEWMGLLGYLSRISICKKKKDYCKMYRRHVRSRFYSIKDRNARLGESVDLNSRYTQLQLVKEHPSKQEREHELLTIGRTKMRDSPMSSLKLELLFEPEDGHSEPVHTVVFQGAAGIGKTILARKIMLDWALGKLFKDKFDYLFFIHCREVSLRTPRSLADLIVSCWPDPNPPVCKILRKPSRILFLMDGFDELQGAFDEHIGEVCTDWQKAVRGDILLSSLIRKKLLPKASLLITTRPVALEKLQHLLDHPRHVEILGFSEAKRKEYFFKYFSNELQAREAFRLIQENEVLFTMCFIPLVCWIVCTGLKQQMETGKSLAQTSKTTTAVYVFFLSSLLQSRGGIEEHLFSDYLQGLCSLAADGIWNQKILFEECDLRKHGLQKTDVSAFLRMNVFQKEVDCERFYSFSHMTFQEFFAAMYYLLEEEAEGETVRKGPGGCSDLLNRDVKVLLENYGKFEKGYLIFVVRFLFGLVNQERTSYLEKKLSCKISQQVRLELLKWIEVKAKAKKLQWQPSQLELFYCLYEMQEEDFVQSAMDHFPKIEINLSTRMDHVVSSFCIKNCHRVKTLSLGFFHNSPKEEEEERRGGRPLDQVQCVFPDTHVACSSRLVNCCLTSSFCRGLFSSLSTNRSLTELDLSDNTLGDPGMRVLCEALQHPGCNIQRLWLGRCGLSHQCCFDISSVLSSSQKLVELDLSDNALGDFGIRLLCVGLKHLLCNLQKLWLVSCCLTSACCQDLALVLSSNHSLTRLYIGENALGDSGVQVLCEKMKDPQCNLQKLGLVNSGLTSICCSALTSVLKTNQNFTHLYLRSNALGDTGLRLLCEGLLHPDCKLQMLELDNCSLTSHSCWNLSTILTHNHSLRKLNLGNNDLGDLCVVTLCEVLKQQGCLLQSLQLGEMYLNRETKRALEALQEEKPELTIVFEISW

[2] = molecular target: NACHT, LRR and PYD domains-containing protein 3 (Mus musculus, UniProt Q8R4B8); assay: Inhibition of NLRP3 inflammasome in C57BL/6J mouse whole blood assessed as reduction in LPS/ATP induced IL-1beta secretion preincubated for 60 mins followed by LPS addition for 4 hrs prior to ATP addition for 30 mins by HTRF method; assay type: tissue-based
NACHT, LRR and PYD domains-containing protein 3, sequence (Q8R4B8 whole entry, the tested form may be a part): as above

[3] = molecular target: NACHT, LRR and PYD domains-containing protein 3 (Mus musculus) (UniProt Q8R4B8); assay: In vivo inhibition of NLRP3 in LPS-induced C57BL/6JRi mouse neuroinflammation model assessed as reduction in blood IL-1beta level at 0.02 mg/kg, po pretreated with LPS for 23 hrs followed by compound addition for 1 hr prior to second dose of LPS addition and measured after 4 hrs; assay type: functional, organism-based; settings: time 5.0 hrs
[4] = molecular target: NLR family CARD domain-containing protein 4 (Homo sapiens) (UniProt Q9NPP4); assay: Inhibition of NLRC4 activation overexpressed in human THP-1 cells assessed as reduction in IL-1beta secretion preincubated for 1 hr followed by PrgI protein addition and measured after 20 hrs; assay type: cell-based
NLR family CARD domain-containing protein 4 (Homo sapiens), sequence (Q9NPP4 whole entry, the tested form may be a part): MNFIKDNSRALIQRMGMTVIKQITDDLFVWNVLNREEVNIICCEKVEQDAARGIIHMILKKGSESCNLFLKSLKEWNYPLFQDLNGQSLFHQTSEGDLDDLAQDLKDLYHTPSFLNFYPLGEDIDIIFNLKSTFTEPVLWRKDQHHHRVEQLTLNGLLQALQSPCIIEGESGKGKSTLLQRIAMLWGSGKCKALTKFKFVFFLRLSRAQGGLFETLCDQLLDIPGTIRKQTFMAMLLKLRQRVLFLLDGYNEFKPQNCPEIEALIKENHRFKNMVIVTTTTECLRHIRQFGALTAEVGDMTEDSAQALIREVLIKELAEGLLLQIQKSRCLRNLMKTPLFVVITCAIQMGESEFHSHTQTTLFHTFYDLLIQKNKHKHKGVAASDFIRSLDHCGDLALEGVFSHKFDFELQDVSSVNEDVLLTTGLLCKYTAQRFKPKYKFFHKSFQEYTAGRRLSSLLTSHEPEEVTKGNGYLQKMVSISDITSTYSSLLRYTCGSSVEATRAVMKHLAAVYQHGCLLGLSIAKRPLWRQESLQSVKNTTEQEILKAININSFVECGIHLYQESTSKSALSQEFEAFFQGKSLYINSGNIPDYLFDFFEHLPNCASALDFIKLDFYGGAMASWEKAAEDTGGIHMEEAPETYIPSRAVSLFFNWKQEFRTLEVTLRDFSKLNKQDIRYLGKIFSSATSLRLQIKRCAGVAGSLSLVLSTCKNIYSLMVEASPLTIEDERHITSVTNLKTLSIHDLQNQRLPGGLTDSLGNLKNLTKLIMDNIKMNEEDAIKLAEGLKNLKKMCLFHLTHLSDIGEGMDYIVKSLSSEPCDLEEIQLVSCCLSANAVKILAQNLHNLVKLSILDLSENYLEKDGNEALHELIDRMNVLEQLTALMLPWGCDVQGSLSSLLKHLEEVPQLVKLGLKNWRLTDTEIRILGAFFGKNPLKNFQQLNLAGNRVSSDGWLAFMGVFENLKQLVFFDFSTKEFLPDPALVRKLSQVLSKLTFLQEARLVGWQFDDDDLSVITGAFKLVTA

[5] = molecular target: NACHT, LRR and PYD domains-containing protein 3 (Mus musculus) (UniProt Q8R4B8); assay: In vivo inhibition of NLRP3 in LPS/ATP-induced C57BL/6JRi mouse peritonitis model assessed as reduction in IL-1beta level at 0.0083 mg/kg, po preadministered with compound for 3 hrs followed by LPS stimulation for 2 hrs and measured 15 mins after ATP addition; assay type: functional, organism-based; settings: time 315.0 min
[6] = molecular target: NACHT, LRR and PYD domains-containing protein 3 (Mus musculus) (UniProt Q8R4B8); assay: In vivo inhibition of NLRP3 in LPS-induced C57BL/6JRi mouse neuroinflammation model assessed as reduction in IL-1beta level in CSF at 2 mg/kg, po pretreated with LPS for 23 hrs followed by compound addition for 1 hr prior to second dose of LPS addition and measured after 4 hrs; assay type: functional, organism-based; settings: time 5.0 hrs
[7] = molecular target: NACHT, LRR and PYD domains-containing protein 3 (Mus musculus) (UniProt Q8R4B8); assay: In vivo inhibition of NLRP3 in LPS-induced C57BL/6JRi mouse neuroinflammation model assessed as reduction in IL-1beta level in CSF at 0.2 mg/kg, po pretreated with LPS for 23 hrs followed by compound addition for 1 hr prior to second dose of LPS addition and measured after 4 hrs; assay type: functional, organism-based; settings: time 5.0 hrs
[8] = molecular target: NACHT, LRR and PYD domains-containing protein 3 (Mus musculus) (UniProt Q8R4B8); assay: In vivo inhibition of NLRP3 in LPS-induced C57BL/6JRi mouse neuroinflammation model assessed as reduction in IL-1beta level in CSF at 0.02 mg/kg, po pretreated with LPS for 23 hrs followed by compound addition for 1 hr prior to second dose of LPS addition and measured after 4 hrs; assay type: functional, organism-based; settings: time 5.0 hrs
[9] = molecular target: NACHT, LRR and PYD domains-containing protein 3 (Mus musculus) (UniProt Q8R4B8); assay: In vivo inhibition of NLRP3 in LPS-induced C57BL/6JRi mouse neuroinflammation model assessed as reduction in blood IL-1beta level at 2 mg/kg, po pretreated with LPS for 23 hrs followed by compound addition for 1 hr prior to second dose of LPS addition and measured after 4 hrs; assay type: functional, organism-based; settings: time 5.0 hrs
[10] = molecular target: NACHT, LRR and PYD domains-containing protein 3 (Mus musculus) (UniProt Q8R4B8); assay: In vivo inhibition of NLRP3 in LPS-induced C57BL/6JRi mouse neuroinflammation model assessed as reduction in blood IL-1beta level at 0.2 mg/kg, po pretreated with LPS for 23 hrs followed by compound addition for 1 hr prior to second dose of LPS addition and measured after 4 hrs; assay type: functional, organism-based; settings: time 5.0 hrs
[11] = molecular target: NACHT, LRR and PYD domains-containing protein 3 (Mus musculus) (UniProt Q8R4B8); assay: In vivo inhibition of NLRP3 in LPS/ATP-induced C57BL/6JRi mouse peritonitis model assessed as reduction in IL-1beta level at 0.3 mg/kg, po preadministered with compound for 3 hrs followed by LPS stimulation for 2 hrs and measured 15 mins after ATP addition; assay type: functional, organism-based; settings: time 315.0 min
[12] = molecular target: NACHT, LRR and PYD domains-containing protein 3 (Mus musculus) (UniProt Q8R4B8); assay: In vivo inhibition of NLRP3 in LPS/ATP-induced C57BL/6JRi mouse peritonitis model assessed as reduction in IL-1beta level at 2 mg/kg, po preadministered with compound for 3 hrs followed by LPS stimulation for 2 hrs and measured 15 mins after ATP addition; assay type: functional, organism-based; settings: time 315.0 min
Pyrin = molecular target: T1, Pyrin (Homo sapiens, UniProt O15553); assay: Inhibition of pyrin inflammasome activation in human U-937 cells assessed as IL-1beta secretion preincubated for 1 hr followed by BAA473 addition and measured after 4 hrs; assay type: cell-based
T1 sequence (O15553 whole entry): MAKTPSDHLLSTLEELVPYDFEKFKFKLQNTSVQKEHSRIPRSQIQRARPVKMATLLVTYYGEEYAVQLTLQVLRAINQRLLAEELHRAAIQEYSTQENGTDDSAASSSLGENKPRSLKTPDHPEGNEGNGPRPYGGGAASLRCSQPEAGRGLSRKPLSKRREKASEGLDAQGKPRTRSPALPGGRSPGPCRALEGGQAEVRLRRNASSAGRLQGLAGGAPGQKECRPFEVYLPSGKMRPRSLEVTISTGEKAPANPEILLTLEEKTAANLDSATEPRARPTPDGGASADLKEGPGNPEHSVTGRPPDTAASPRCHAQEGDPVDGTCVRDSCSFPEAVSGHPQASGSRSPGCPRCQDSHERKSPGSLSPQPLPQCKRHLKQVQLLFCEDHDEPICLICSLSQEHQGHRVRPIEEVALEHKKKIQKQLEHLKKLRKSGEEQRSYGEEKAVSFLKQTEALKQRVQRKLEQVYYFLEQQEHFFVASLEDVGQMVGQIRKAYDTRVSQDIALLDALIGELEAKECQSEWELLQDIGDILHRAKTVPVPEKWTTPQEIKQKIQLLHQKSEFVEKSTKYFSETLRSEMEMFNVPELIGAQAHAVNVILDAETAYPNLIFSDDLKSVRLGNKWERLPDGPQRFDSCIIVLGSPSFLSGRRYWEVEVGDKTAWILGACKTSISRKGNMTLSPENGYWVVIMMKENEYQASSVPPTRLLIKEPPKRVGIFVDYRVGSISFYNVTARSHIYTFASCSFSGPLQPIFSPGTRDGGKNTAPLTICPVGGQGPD

[13] = molecular target: T2, Muscarinic acetylcholine receptor M2 (Homo sapiens) (UniProt P08172); assay: Binding affinity to M2 muscarinic receptor (unknown origin)
T2 sequence (whole entry): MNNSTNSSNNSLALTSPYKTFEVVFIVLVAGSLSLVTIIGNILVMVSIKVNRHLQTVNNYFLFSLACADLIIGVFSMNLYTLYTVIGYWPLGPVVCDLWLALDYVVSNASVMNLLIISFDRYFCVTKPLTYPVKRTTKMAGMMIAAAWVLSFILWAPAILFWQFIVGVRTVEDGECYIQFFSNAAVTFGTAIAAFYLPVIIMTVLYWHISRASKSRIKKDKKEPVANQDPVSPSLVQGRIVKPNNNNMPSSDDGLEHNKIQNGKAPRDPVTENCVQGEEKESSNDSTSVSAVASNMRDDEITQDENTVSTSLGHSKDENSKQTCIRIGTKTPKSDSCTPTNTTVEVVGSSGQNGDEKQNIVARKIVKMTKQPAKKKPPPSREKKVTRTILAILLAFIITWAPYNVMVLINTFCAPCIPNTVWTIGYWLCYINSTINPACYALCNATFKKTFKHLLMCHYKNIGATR

[14] = molecular target: Sodium-dependent serotonin transporter (Homo sapiens) (UniProt P31645); assay: Binding affinity to 5HTT (unknown origin)
Sodium-dependent serotonin transporter (Homo sapiens), sequence (P31645 whole entry, looked up, the tested form may be a part): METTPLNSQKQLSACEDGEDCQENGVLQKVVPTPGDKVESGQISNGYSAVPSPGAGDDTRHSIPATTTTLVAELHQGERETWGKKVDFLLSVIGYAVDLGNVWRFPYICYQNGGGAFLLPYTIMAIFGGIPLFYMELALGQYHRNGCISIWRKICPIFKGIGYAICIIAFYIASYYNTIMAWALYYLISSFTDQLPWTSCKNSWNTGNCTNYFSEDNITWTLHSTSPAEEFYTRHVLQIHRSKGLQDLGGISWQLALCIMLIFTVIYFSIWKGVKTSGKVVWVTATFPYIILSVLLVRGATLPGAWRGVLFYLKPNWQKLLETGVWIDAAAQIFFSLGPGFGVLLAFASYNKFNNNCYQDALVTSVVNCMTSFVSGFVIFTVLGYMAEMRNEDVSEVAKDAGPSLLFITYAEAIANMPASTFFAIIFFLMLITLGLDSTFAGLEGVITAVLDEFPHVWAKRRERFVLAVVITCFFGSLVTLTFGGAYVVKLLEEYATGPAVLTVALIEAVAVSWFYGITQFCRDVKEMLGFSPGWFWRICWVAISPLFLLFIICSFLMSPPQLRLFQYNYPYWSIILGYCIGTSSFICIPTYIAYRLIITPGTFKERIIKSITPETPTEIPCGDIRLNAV

[15] = molecular target: NACHT, LRR and PYD domains-containing protein 3 (Mus musculus) (UniProt Q8R4B8); assay: In vivo inhibition of NLRP3 in LPS/ATP-induced C57BL/6JRi mouse peritonitis model assessed as reduction in IL-1beta level at 0.05 mg/kg, po preadministered with compound for 3 hrs followed by LPS stimulation for 2 hrs and measured 15 mins after ATP addition; assay type: functional, organism-based; settings: time 315.0 min

`Cc1cc(C(F)(F)F)cc(O)c1-c1ccc(N[C@@H]2CCCN(C)C2)nn1` showed an inhibition [1] of 99.5%.
`Cc1cc(C(F)(F)F)cc(O)c1-c1ccc(N[C@@H]2CCCN(CCO)C2)nn1` was tested, and the inhibition [1] was 99.6% and the IC50 [2] was 2.1 nM.
Work on `Cc1cc(C)c(-c2ccc(N[C@@H]3CCCN(C)C3)nn2)c(O)c1` yielded an inhibition [1] of 99% and an IC50 [2] of 5.8 nM.
For `CCN1CCC[C@@H](Nc2ccc(-c3c(C)cc(C(F)(F)F)cc3O)nn2)C1`, the inhibition [3] was 42.5%, the inhibition [4] was “inactive” and the inhibition [1] was 99.4%. The inhibition [5] was 16%, the inhibition [6] was 96.5% and the inhibition [7] was 51.6%. The inhibition [8] was -2%, the IC50 [2] was 2.5 nM and the inhibition [9] was 94.3%. The inhibition [10] was 87.7%, the inhibition [11] was 98.3% and the inhibition [12] was 99.6%. The IC50 (Pyrin) was over 33000 nM, the Activity [13] was “Active” and the Activity [14] was “Active”. The inhibition [15] was 43.9%.

Source: ChEMBL document CHEMBL6074670, “Discovery of NP3-253, a Potent Brain Penetrant Inhibitor of the NLRP3 Inflammasome” (J Med Chem, 2024)
